Literature values, collected in article PMC10341550, “Beta-Secretase 1 Recruits Amyloid-Beta Precursor Protein to ROCK2 Kinase, Resulting in Erroneous Phosphorylation and Beta-Amyloid Plaque Formation” (International Journal of Molecular Sciences, 2023).

What was measured:
Conditions in all cases: cited from earlier work
[1] = tested on: Aβ production in an AD mouse brain
From the text: Alzheimer’s disease is currently the leading cause of dementia, with no effective treatment. […] Although Aβ cannot account for all features of Alzheimer’s disease, reducing Aβ production or accumulation is a major therapeutic strategy to confront the disease. The accumulation of Aβ peptides in senile plaques is the consequence of pathological processing of APP. There are two major pathways of APP processing: a non-amyloidogenic pathway invo ...

ROCK2 = tested on: ROCK2
protein kinase CK2α = tested on: protein kinase CK2α
From the text: Despite decades of intensive research, there is no efficient drug to prevent or cure Alzheimer’s disease. […] During the processing of APP, its cleavage by BACE1 is the rate-limiting step [16]; therefore, the inhibition of BACE1 could be a trivial solution. The development of small molecular inhibitors against BACE1 was set back with a series of unwanted side effects. Previously, it was shown that pharmacological inhibition of ROCK2 activity diminishes sAPPβ pro ...

## CN(C)CCOc1cc(-c2cn[nH]c2)ccc1NC(=O)C1COc2ccccc2O1 (stereo not drawn) [SR3677]
[1]
  Aβ production: diminished the production of Aβ in an AD mouse brain

## CC(C)NC(=O)COc1cccc(-c2nc(Nc3ccc4[nH]ncc4c3)c3ccccc3n2)c1 [belumosudil]
ROCK2
  ROCK2 inhibition selectivity (in words): highly selective
Protein kinase CK2α
  inhibition of protein kinase CK2α (in words): inhibition of the protein kinase CK2α
